According to patent US10858335B2 (Rigel Pharmaceuticals, Inc., priority 2014, dated 2020):
Where a name gives a salt, the structure may show the parent alone.

These compounds were tested on GDF8 signaling (p-SMAD-3 (Ser423/425)) (assay: AlphaScreen SureFire SMAD3 (p-Ser423/425) assay, GDF8-stimulated cells (GDF pSMAD)). Conditions: MPC11; GDF8-stimulated; p-SMAD3 AlphaScreen; read-out: GDF pSMAD (MPC11) (inhibition of GDF8 signaling).
Type: cell-based

`Nc1ncnc2ccc(-c3cccnc3-c3cc(Cl)c(F)cc3F)cc12` [compound 819, 6-(2-(5-Chloro-2,4-difluorophenyl)pyridin-3-yl)quinazolin-4-amine] was tested, and the IC50 was 0.119 µM.

Same assay, conditions: Mus musculus, MPC-11, GDF8-stimulated pSMAD3, MPC11; tested as the salt form given; read-out: GDF pSMAD (MPC11) (μM), inhibition of GDF8 signaling

For `c1cnc(-c2cccc3c2OCC3)c(-c2ccc3ncsc3c2)c1` [compound 1076], the IC50 was 9.67 µM.

Same assay, conditions: Mus musculus, MPC-11, MPC11; GDF8-stimulated; p-SMAD3 AlphaScreen; read-out: GDF pSMAD (MPC11) (inhibition of GDF8 signaling)

In order of rising IC50:
1. Clc1cccc(-c2ncccc2-c2ccn3nccc3n2)c1 [compound 916, 5-(2-(3-Chlorophenyl)pyridin-3-yl)pyrazolo[1,5-a]pyrimidine]  0.104 µM
2. Cc1cc(-c2ncccc2-c2cc(C)c3[nH]ncc3c2)ccc1F [Compound 175, 5-(2-(4-Fluoro-3-methylphenyl)pyridin-3-yl)-7-methyl-1H-indazole]  0.118 µM
3. Cc1cc(-c2ncccc2-c2ccc3c(cnn3C(=O)OC[C@H](N)Cc3c[nH]c4ccccc34)c2)ccc1F [compound 629, (R)-2-Amino-3-(1H-indol-3-yl)propyl 5-(2-(4-fluoro-3-methylphenyl)pyridin-3-yl)-1H-indazole-1-carboxylate TFA salt]  0.132 µM
4. Clc1cccc(-c2ncccc2-c2ccc3nccn3c2)c1 [compound 698, 6-(2-(3-Chlorophenyl)pyridin-3-yl)imidazo[1,2-a]pyridine]  0.145 µM
5. Cc1cc(-c2ncccc2-c2ccnc(Nc3cccc(S(N)(=O)=O)c3)n2)ccc1F [compound 907, 3-((4-(2-(4-Fluoro-3-methylphenyl)pyridin-3-yl)pyrimidin-2-yl)amino)benzenesulfonamide]  0.164 µM
6. Clc1cccc(-c2ncccc2-c2ccn3nccc3c2)c1 [compound 759, 5-(2-(3-Chlorophenyl)pyridin-3-yl)pyrazolo[1,5-a]pyridine]  0.175 µM
7. Cc1cccc(-c2ncccc2-c2cnc3[nH]ncc3c2)c1 [Compound 79, 5-(2-m-Tolylpyridin-3-yl)-1H-pyrazolo[3,4-b]pyridine]  0.264 µM
8. Fc1ccc(Cl)cc1-c1ncccc1-c1ccc2ncnn2n1 [compound 955, 6-(2-(5-Chloro-2-fluorophenyl)pyridin-3-yl)-[1,2,4]triazolo[1,5-b]pyridazine]  0.29 µM
9. Cn1cnc2ccc(-c3cccnc3-c3ccc(F)c(Cl)c3)cc21 [compound 768, 6-(2-(3-Chloro-4-fluorophenyl)pyridin-3-yl)-1-methyl-1H-benzo[d]imidazole]  0.327 µM
10. Cc1cc(-c2ncccc2-c2ccc3c(cnn3C(=O)OC[C@@H](N)Cc3c[nH]c4ccccc34)c2)ccc1F [compound 179, (S)-2-Amino-3-(1H-indol-3-yl)propyl 5-(2-(4-fluoro-3-methylphenyl)pyridin-3-yl)-1H-indazole-1-carboxylate Trifluoroacetic Acid Salt]  0.337 µM
11. Cc1cc(-c2ncccc2-c2ccc3c(N)n[nH]c3c2)ccc1F [compound 786, 6-(2-(4-Fluoro-3-methylphenyl)pyridin-3-yl)-1H-indazol-3-amine]  0.34 µM
12. FC(F)(F)c1cnc2ccc(-c3cccnc3-c3cccc(C4CC4)c3)cn12 [compound 556, 6-(2-(3-Cyclopropylphenyl)pyridin-3-yl)-3-(trifluoromethyl)imidazo[1,2-a]pyridine]  0.363 µM
13. Fc1cc(F)c(-c2ncccc2-c2ccc3ncnn3n2)cc1Cl [compound 956, 6-(2-(5-Chloro-2,4-difluorophenyl)pyridin-3-yl)-[l 1,2,4]triazolo[1,5-b]pyridazine]  0.421 µM
14. Fc1ccc(Cl)cc1-c1ncccc1-c1ccc2nccn2c1 [compound 721, 6-(2-(5-Chloro-2-fluorophenyl)pyridin-3-yl)imidazo[1,2-a]pyridine]  0.44 µM
15. N#Cc1cc(-c2ncccc2-c2ccc3ncnc(N)c3c2)ccc1F [compound 477, 5-(3-(4-Aminoquinazolin-6-yl)pyridin-2-yl)-2-fluorobenzonitrile]  0.492 µM
16. Cc1cc(-c2ncccc2-c2ccc3ncc(C(=O)NCCCN)n3c2)ccc1F [compound 682, N-(3-Aminopropyl)-6-(2-(4-fluoro-3-methylphenyl)pyridin-3-yl)imidazo[1,2-a]pyridine-3-carboxamide]  0.539 µM
17. CCc1cccc(-c2ncccc2-c2ccc3[nH]ncc3c2)c1 [Compound 149, 5-(2-(3-Ethylphenyl)pyridin-3-yl)-1H-indazole]  0.642 µM
18. Cc1cc(-c2ncc(NCc3ccc(N4CCOCC4)cc3)cc2-c2ccc3ncsc3c2)ccc1F [compound 353, 5-(Benzo[d]thiazol-6-yl)-6-(4-fluoro-3-methylphenyl)-N-(4-morpholinobenzyl)pyridin-3-amine]  0.689 µM
19. Cc1cc(-c2ncccc2-c2ccc3nccnc3c2)ccc1F [compound 539, 6-(2-(4-Fluoro-3-methylphenyl)pyridin-3-yl)quinoxaline]  0.699 µM
20. CCOC(=O)c1cnn2ccc(-c3cccnc3-c3ccc(F)c(Cl)c3)nc12 [compound 898, Ethyl 5-(2-(3-chloro-4-fluorophenyl)pyridin-3-yl)pyrazolo[1,5-a]pyrimidine-3-carboxylate]  0.714 µM
21. COc1cc(NC(=O)c2cnc3ccc(-c4cccnc4-c4cccc(C)c4)cn23)cc(OC)c1OC [compound 574, 6-(2-(m-Tolyl)pyridin-3-yl)-N-(3,4,5-trimethoxyphenyl)imidazo[1,2-a]pyridine-3-carboxamide]  0.853 µM
22. Fc1ccc(OC(F)(F)F)cc1-c1ncccc1-c1ccn2ncnc2c1 [compound 884, 7-(2-(2-Fluoro-5-(trifluoromethoxy)phenyl)pyridin-3-yl)-[1,2,4]triazolo[1,5-a]pyridine]  0.997 µM
23. Cc1cc(-c2ncccc2-c2ccc3ncnc(NC4CC4)c3c2)ccc1F [compound 404, N-Cyclopropyl-6-(2-(4-fluoro-3-methylphenyl)pyridin-3-yl)quinazolin-4-amine]  1.03 µM
24. Cc1cc(-c2ncc(NCc3ccc(N4CCN(C)CC4)cc3)cc2-c2ccc3ncsc3c2)ccc1F [compound 373, 5-(Benzo[d]thiazol-6-yl)-6-(4-fluoro-3-methylphenyl)-N-(4-(4-methylpiperazin-1-yl)benzyl)pyridin-3-amine]  1.2 µM
25. Cc1cc(-c2ncc(NCc3ccccn3)cc2-c2ccc3nccnc3c2)ccc1F [compound 246, 6-(4-Fluoro-3-methylphenyl)-N-(pyridin-2-ylmethyl)-5-(quinoxalin-6-yl)pyridin-3-amine]  1.29 µM
26. Cn1c(=O)cnc2ccc(-c3cccnc3-c3ccc(F)c(Cl)c3)cc21 [compound 887, 7-(2-(3-Chloro-4-fluorophenyl)pyridin-3-yl)-1-methylquinoxalin-2(1H1)-one]  1.75 µM
27. Fc1cc(F)cc(-c2ncccc2-c2ccc3[nH]ncc3c2)c1 [Compound 67, 5-[2-(3,5-Difluorophenyl)pyridin-3-yl]-1H-indazole]  1.81 µM
28. Clc1cccc(-c2ncccc2-c2ccc3ncccc3c2)c1 [compound 699, 6-(2-(3-Chlorophenyl)pyridin-3-yl)quinolone]  2.3 µM
29. OCc1cc(-c2ncccc2-c2ccc3[nH]ncc3c2)ccc1F [Compound 89, (5-(3-(1H-Indazol-5-yl)pyridin-2-yl)-2-fluorophenyl)methanol]  2.55 µM
30. Cc1cccc(-c2ncc(NS(C)(=O)=O)cc2-c2ccc3[nH]ncc3c2)c1 [Compound 32, N-(5-(1H-Indazol-5-yl)-6-m-tolylpyridin-3-yl) methanesulfonamide]  2.8 µM
31. Cc1cc(-c2ncc(NC3CCN(C)CC3)cc2-c2ccc3ncsc3c2)ccc1F [compound 247, 5-(Benzo[d]thiazol-6-yl)-6-(4-fluoro-3-methylphenyl)-N-(1-methylpiperidin-4-yl)pyridin-3-amine]  3.2 µM
32. Fc1ccc(-c2ncccc2-c2cnc3[nH]ncc3c2)cc1F [Compound 77, 5-(2-(3,4-Difluorophenyl)pyridin-3-yl)-1H-pyrazolo[3,4-b]pyridine]  3.65 µM
33. Fc1c(Cl)cccc1-c1ncccc1-c1ccc2ncnn2c1 [compound 772, 6-(2-(3-Chloro-2-fluorophenyl)pyridin-3-yl)-[1,2,4]triazolo[1,5-a]pyridine]  4.95 µM
34. Cc1cc(-c2ncccc2-c2ccc3ncnc(NC(C)C)c3c2)ccc1F [compound 400, 6-(2-(4-Fluoro-3-methylphenyl)pyridin-3-yl)-N-isopropylquinazolin-4-amine]  5.81 µM
35. Fc1ccc(-c2ncccc2-c2cnc3[nH]ncc3c2)cc1 [Compound 80, 5-(2-(4-Fluorophenyl)pyridin-3-yl)-1H-pyrazolo[3,4-b]pyridine]  6.33 µM
36. Cc1cccc(-c2cccnc2-c2ccc3nc[nH]c3c2)n1 [compound 521, 6-(6-Methyl-[2,3′-bipyridin]-2′-yl)-1H-benzo[d]imidazole]  8.06 µM
37. Cc1cc(-c2ncc(CN3CCOCC3)cc2-c2ccc3nccnc3c2)ccc1F [compound 225, 4-((6-(4-Fluoro-3-methylphenyl)-5-(quinoxalin-6-yl)pyridin-3-yl)methyl)morpholine]  9.46 µM
38. Fc1cnc(-c2ccc(F)c(Cl)c2)c(-c2ccn3ncnc3c2)c1 [compound 860, 7-(2-(3-Chloro-4-fluorophenyl)-5-fluoropyridin-3-yl)-[1,2,4]triazolo[1,5-a]pyridine]  9.98 µM
39. Cc1cccc(-c2ncccc2-c2ccc3ncn(CCCN4CCOCC4)c3c2)c1 [compound 250, 4-(3-(6-(2-m-Tolylpyridin-3-yl)-1H-benzo[d]imidazol-1-yl)propyl)morpholine]  10.5 µM
40. Cc1cc(-c2ncc(N3CCN(C)CC3)cc2-c2ccc3ncsc3c2)ccc1F [compound 319, 6-(2-(4-Fluoro-3-methylphenyl)-5-(4-methylpiperazin-1-yl)pyridin-3-yl)benzo[d]thiazole]  10.6 µM
41. Cc1cc(-c2ncccc2-c2ccc3ncn(CCCN4CCN(C)CC4)c3c2)ccc1F [compound 253, 1-(3-(4-Methylpiperazin-1-yl)propyl)-6-(2-(4-fluoro-3-methylphenyl)pyridin-3-yl)-1H-benzo[d]imidazole]  12.4 µM
